# According to PubChem BioAssay (NCI):
#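 How tested: cells in 96-well plates exposed to compound for 48 hours at five concentrations. The concentration for full growth arrest is given as TGI.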
# Columns and labels:
# Experiment in all cases: NCI anticancer screen, dose series, 48 h
# U251 CNS = system: U251 CNS
# MDA-N = system: MDA-N
# OVCAR-8 ovarian = system: OVCAR-8 ovarian
# SNB-19 CNS = system: SNB-19 CNS
# HOP-62 NSCLC = system: HOP-62 NSCLC
# SR leukemia = system: SR leukemia
# EKVX NSCLC = system: EKVX NSCLC
# HCT-116 colon = system: HCT-116 colon
# COLO 205 colon = system: COLO 205 colon
# ACHN renal = system: ACHN renal
# SK-MEL-28 melanoma = system: SK-MEL-28 melanoma
# OVCAR-5 ovarian = system: OVCAR-5 ovarian
# SF-268 CNS = system: SF-268 CNS
# NCI-H522 lung = system: NCI-H522 lung
# NCI/ADR-RES ovarian = system: NCI/ADR-RES ovarian
# T-47D breast = system: T-47D breast
# CAKI-1 renal = system: CAKI-1 renal
# SW-620 colon = system: SW-620 colon
# UO-31 renal = system: UO-31 renal
# TK-10 renal = system: TK-10 renal
# OVCAR-3 ovarian = system: OVCAR-3 ovarian
# HS 578T breast = system: HS 578T breast
# SNB-75 CNS = system: SNB-75 CNS
# MOLT-4 leukemia = system: MOLT-4 leukemia
# SK-MEL-5 melanoma = system: SK-MEL-5 melanoma
# PC-3 prostate = system: PC-3 prostate
# UACC-257 melanoma = system: UACC-257 melanoma
# IGROV1 ovarian = system: IGROV1 ovarian
# MDA-MB-435 = system: MDA-MB-435
# MDA-MB-231 breast = system: MDA-MB-231 breast
# NCI-H460 lung = system: NCI-H460 lung
# SF-295 CNS = system: SF-295 CNS
# A549 NSCLC = system: A549 NSCLC
# HCC-2998 colon = system: HCC-2998 colon
# NCI-H226 lung = system: NCI-H226 lung
# NCI-H23 lung = system: NCI-H23 lung
# CCRF-CEM leukemia = system: CCRF-CEM leukemia
# UACC-62 melanoma = system: UACC-62 melanoma
# SF-539 CNS = system: SF-539 CNS
# BT-549 breast = system: BT-549 breast
# KM12 colon = system: KM12 colon
# RPMI-8226 leukemia = system: RPMI-8226 leukemia
# LOX IMVI melanoma = system: LOX IMVI melanoma
# HL-60(TB) leukemia = system: HL-60(TB) leukemia
# K-562 leukemia = system: K-562 leukemia
# HT29 colon = system: HT29 colon
# RXF 393 renal = system: RXF 393 renal
# DU-145 prostate = system: DU-145 prostate
# MALME-3M melanoma = system: MALME-3M melanoma
# HCT-15 colon = system: HCT-15 colon
# SN12C renal = system: SN12C renal
# 786-0 renal = system: 786-0 renal
# SK-OV-3 ovarian = system: SK-OV-3 ovarian
# OVCAR-4 ovarian = system: OVCAR-4 ovarian
# SK-MEL-2 melanoma = system: SK-MEL-2 melanoma
# HOP-92 NSCLC = system: HOP-92 NSCLC
# A498 renal = system: A498 renal
# M14 melanoma = system: M14 melanoma
structure (smiles),measurement,setting,value
O=C(O)c1ccc(Nc2nc3cc(C(F)(F)F)ccc3nc2-c2ccccc2)cc1,TGI,U251 CNS,34.2 µM
same,TGI,MDA-N,> 100 µM
same,TGI,OVCAR-8 ovarian,> 100 µM
same,TGI,SNB-19 CNS,> 100 µM
same,TGI,HOP-62 NSCLC,43.1 µM
same,TGI,SR leukemia,> 100 µM
same,TGI,EKVX NSCLC,92 µM
same,TGI,HCT-116 colon,84.5 µM
same,TGI,COLO 205 colon,37.9 µM
same,TGI,ACHN renal,> 100 µM
same,TGI,SK-MEL-28 melanoma,> 100 µM
same,TGI,OVCAR-5 ovarian,97.7 µM
same,TGI,SF-268 CNS,> 100 µM
same,TGI,NCI-H522 lung,32.8 µM
same,TGI,NCI/ADR-RES ovarian,70.2 µM
same,TGI,T-47D breast,35.1 µM
same,TGI,CAKI-1 renal,50.4 µM
same,TGI,SW-620 colon,30.9 µM
same,TGI,UO-31 renal,36.9 µM
same,TGI,TK-10 renal,39.3 µM
same,TGI,OVCAR-3 ovarian,28.4 µM
same,TGI,HS 578T breast,49.4 µM
same,TGI,SNB-75 CNS,63.9 µM
same,TGI,MOLT-4 leukemia,> 100 µM
same,TGI,SK-MEL-5 melanoma,> 100 µM
same,TGI,PC-3 prostate,40.6 µM
same,TGI,UACC-257 melanoma,> 100 µM
same,TGI,IGROV1 ovarian,35.9 µM
same,TGI,MDA-MB-435,> 100 µM
same,TGI,MDA-MB-231 breast,> 100 µM
same,TGI,NCI-H460 lung,75.7 µM
same,TGI,SF-295 CNS,27.9 µM
same,TGI,A549 NSCLC,40.3 µM
same,TGI,HCC-2998 colon,34.4 µM
same,TGI,NCI-H226 lung,69.6 µM
same,TGI,NCI-H23 lung,> 100 µM
same,TGI,CCRF-CEM leukemia,> 100 µM
same,TGI,UACC-62 melanoma,26.2 µM
same,TGI,SF-539 CNS,56.4 µM
same,TGI,BT-549 breast,> 100 µM
same,TGI,KM12 colon,35.3 µM
same,TGI,RPMI-8226 leukemia,83.1 µM
same,TGI,LOX IMVI melanoma,32.5 µM
same,TGI,HL-60(TB) leukemia,> 100 µM
same,TGI,K-562 leukemia,42.7 µM
same,TGI,HT29 colon,28.2 µM
same,TGI,RXF 393 renal,81.5 µM
same,TGI,DU-145 prostate,95.5 µM
same,TGI,MALME-3M melanoma,> 100 µM
same,TGI,HCT-15 colon,30.6 µM
same,TGI,SN12C renal,97.6 µM
same,TGI,786-0 renal,35 µM
CCOC(=O)N1[C@@H]2CCC[C@@H]2C(=O)[C@@H]2CCC[C@@H]21,TGI,U251 CNS,> 100 µM
same,TGI,MDA-N,> 100 µM
same,TGI,OVCAR-8 ovarian,> 100 µM
same,TGI,SK-OV-3 ovarian,> 100 µM
same,TGI,SNB-19 CNS,> 100 µM
same,TGI,HOP-62 NSCLC,> 100 µM
same,TGI,SR leukemia,> 100 µM
same,TGI,OVCAR-4 ovarian,> 100 µM
same,TGI,HCT-116 colon,> 100 µM
same,TGI,COLO 205 colon,> 100 µM
same,TGI,ACHN renal,> 100 µM
same,TGI,SK-MEL-28 melanoma,> 100 µM
same,TGI,OVCAR-5 ovarian,> 100 µM
same,TGI,SF-268 CNS,> 100 µM
same,TGI,NCI/ADR-RES ovarian,> 100 µM
same,TGI,T-47D breast,> 100 µM
same,TGI,CAKI-1 renal,> 100 µM
same,TGI,SW-620 colon,> 100 µM
same,TGI,OVCAR-3 ovarian,> 100 µM
same,TGI,SK-MEL-2 melanoma,> 100 µM
same,TGI,HOP-92 NSCLC,> 100 µM
same,TGI,HS 578T breast,> 100 µM
same,TGI,SNB-75 CNS,> 100 µM
same,TGI,MOLT-4 leukemia,> 100 µM
same,TGI,SK-MEL-5 melanoma,> 100 µM
same,TGI,PC-3 prostate,> 100 µM
same,TGI,UACC-257 melanoma,> 100 µM
same,TGI,IGROV1 ovarian,> 100 µM
same,TGI,MDA-MB-435,> 100 µM
same,TGI,MDA-MB-231 breast,> 100 µM
same,TGI,NCI-H460 lung,> 100 µM
same,TGI,A498 renal,> 100 µM
same,TGI,A549 NSCLC,> 100 µM
same,TGI,HCC-2998 colon,> 100 µM
same,TGI,NCI-H226 lung,> 100 µM
same,TGI,M14 melanoma,> 100 µM
same,TGI,NCI-H23 lung,> 100 µM
same,TGI,CCRF-CEM leukemia,> 100 µM
same,TGI,UACC-62 melanoma,> 100 µM
same,TGI,BT-549 breast,> 100 µM
same,TGI,KM12 colon,> 100 µM
same,TGI,RPMI-8226 leukemia,> 100 µM
same,TGI,LOX IMVI melanoma,> 100 µM
same,TGI,HL-60(TB) leukemia,> 100 µM
same,TGI,K-562 leukemia,> 100 µM
same,TGI,HT29 colon,> 100 µM
same,TGI,RXF 393 renal,> 100 µM
same,TGI,DU-145 prostate,> 100 µM
same,TGI,HCT-15 colon,> 100 µM
same,TGI,SN12C renal,> 100 µM
same,TGI,786-0 renal,> 100 µM
